According to ChEMBL document CHEMBL1201862, “PubChem BioAssay data set” (2004):
Values belong to the compound of their own block, whether it stands above or below them. Activity calls are given as the source filed them.

Tests used:
Candida albicans = assay: reversal of fluconazole resistance in C. albicans, dose response, CaCi-2 strain, Alamar Blue, dry powder, set 3 (AID 488907); assay type: functional, organism-based
[1] = target: T1, Carboxy-terminal domain RNA polymerase II polypeptide A small phosphatase 1 (Homo sapiens, UniProt Q9GZU7); assay: inhibitors of CTDSP1, concentration-response testing, biochemical assay, absorbance-based, actives from ultra-high-throughput screening (AID 540297); assay type: functional
T1 sequence (Q9GZU7 whole entry): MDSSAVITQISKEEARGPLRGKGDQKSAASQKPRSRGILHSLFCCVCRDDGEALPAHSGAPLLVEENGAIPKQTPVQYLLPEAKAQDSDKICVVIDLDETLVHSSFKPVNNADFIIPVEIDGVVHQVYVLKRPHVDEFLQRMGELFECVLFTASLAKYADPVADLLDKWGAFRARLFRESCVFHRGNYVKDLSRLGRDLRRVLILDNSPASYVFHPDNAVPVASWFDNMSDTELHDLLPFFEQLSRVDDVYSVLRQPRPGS

[2] = target: Beta-adrenergic receptor kinase 1 (Homo sapiens, UniProt P25098); assay: GRK2 inhibitors displacing RNA aptamer, dose response, biochemical, flow cytometry beads, FAM-aptamer, powder set 1 (AID 588720)
Chain of Beta-adrenergic receptor kinase 1 (P25098 whole entry, the tested form may be a part): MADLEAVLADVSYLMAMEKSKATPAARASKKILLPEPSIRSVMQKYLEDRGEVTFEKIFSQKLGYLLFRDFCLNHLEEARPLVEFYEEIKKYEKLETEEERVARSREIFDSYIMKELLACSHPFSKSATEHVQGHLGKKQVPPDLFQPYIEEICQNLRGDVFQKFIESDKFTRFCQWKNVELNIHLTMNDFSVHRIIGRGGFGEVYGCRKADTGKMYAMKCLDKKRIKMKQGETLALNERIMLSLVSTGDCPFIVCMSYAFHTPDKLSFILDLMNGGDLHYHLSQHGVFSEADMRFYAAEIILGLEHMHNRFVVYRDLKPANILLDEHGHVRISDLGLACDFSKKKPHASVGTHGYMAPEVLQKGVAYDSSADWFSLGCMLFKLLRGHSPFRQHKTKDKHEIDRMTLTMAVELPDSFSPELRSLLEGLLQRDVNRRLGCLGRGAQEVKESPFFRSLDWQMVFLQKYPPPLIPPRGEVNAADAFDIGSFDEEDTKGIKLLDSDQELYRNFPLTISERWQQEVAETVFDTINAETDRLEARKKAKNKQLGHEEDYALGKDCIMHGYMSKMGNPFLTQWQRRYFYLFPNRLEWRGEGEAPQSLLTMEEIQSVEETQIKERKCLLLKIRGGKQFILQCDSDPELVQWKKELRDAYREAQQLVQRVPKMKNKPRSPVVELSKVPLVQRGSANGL

[3] = inhibitors of HIV Env-driven cell fusion, dose response, cherry-pick (AID 652057); assay type: functional, cell-based
[4] = inhibitors of clade B AD8 Env fusion, dose response, cell-based, cherry-pick (AID 652062); assay type: functional;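 also: luciferase signal from cell-cell fusion driven by HIV-1 clade B AD8 Env; potency is for inhibitors of fusion seen as a drop in luminescence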
[5] = growth suppression of PTEN-null colon cells, dose response, cell-based, HCT116 PTEN knockout (AID 1047); assay type: functional;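 also: HCT116 colon tumor cells with PTEN knocked out; cells exposed to compound for 60 hours before readout; potency for loss of cell viability measured by luminescence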
INS1 = assay: beta cell apoptosis inhibitors, cytokine rescue, dose response, luminescence, retest (AID 449756); assay type: functional, cell-based;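 also: cell death triggered by IL-1 beta plus TNF-alpha plus IFN-gamma mixture; protective hits raise ATP signal compared with cytokine alone wells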
[6] = target: T2, Microphthalmia-associated transcription factor (Homo sapiens, UniProt O75030); assay: TRPM1 promoter luciferase signal decrease, dose response, MITF inhibitor project, cell-based, SK-MEL-5, cherry-picked, set 3 (AID 493073); assay type: functional
T2 sequence (O75030 whole entry): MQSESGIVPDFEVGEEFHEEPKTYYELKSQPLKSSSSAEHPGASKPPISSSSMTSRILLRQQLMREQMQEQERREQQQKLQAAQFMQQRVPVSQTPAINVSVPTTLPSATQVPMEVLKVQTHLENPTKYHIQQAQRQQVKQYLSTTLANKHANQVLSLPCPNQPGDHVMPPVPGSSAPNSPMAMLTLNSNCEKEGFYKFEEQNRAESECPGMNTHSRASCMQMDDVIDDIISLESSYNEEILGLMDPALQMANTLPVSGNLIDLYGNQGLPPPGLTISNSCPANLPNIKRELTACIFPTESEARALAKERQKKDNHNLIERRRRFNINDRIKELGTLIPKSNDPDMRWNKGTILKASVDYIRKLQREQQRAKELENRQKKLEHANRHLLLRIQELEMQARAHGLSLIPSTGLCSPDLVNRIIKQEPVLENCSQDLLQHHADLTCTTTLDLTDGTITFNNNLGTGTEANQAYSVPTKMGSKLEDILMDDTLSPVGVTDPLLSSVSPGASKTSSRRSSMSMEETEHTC

[7] = ZM109 Env clade C HIV-1 fusion inhibitors, dose response, HeLa effector, CEM target cells, luciferase, cherry-pick (AID 652058); assay type: functional, cell-based
[8] = CEM21 lymphoblast cell cytotoxicity, dose response, cytotoxicity control for viral fusion inhibitor project, CellTiter-Glo luminescence, cherry-picked (AID 652042); assay type: functional, cell-based;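 also: potency for signal decrease meaning cytotoxicity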
[9] = growth suppression of beta-catenin-knockout colon cells, dose response, cell-based, HCT116, human colon tumor (AID 1045); assay type: functional;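 also: HCT116 colon tumor cells with beta catenin knocked out; cells exposed to compound for 60 hours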
A-375 = assay: MITF: Counter assay: A375 proliferation Measured in Cell-Based System Using Plate Reader - 2084-03_Inhibitor_Dose_DryPowder_Activity. [Related pubchem assays (depositor defined):AID488944]; assay type: functional; conditions: Homo sapiens
Escherichia coli [10] = assay: microbe, parasite or virus in culture
Escherichia coli [11] = assay: microbe, parasite or virus in culture; remark: listed apart in the source

SMILES: O=C(C1CCCCC1)N1CCN(c2ccccn2)CC1
AC50 (Candida albicans): 0.398 µM (active)

IC50 [1]: 7.86 µM (active)
EC50 [2]: 2.47 µM (active)
SMILES: O=C(CCS(=O)(=O)c1ccc(Br)cc1)Nc1cc(F)ccc1F

SMILES: CC1CCC(C(C)C)C(OC(=O)Cn2c(-c3ccccc3)[n+](C)c3ccccc32)C1 (stereo not given)
AC50 [3]: 6.82 µM (active)
AC50 [4]: 5.44 µM (active)
EC50 [5]: 3.06 µM (active)
AC50 (INS1; Rattus norvegicus, INS1): 3.2 µM (active)
AC50 (INS1; ins1): 2.71 µM (active)
AC50 [6]: 2.37 µM (active)
AC50 [7]: 4.62 µM (active)
AC50 [8]: 8.36 µM (active)
EC50 [9]: 2.97 µM (active)
AC50 (A-375): 41.3 µM (active)

SMILES: CCC[C@@H]1C[C@@]1(CCC)[C@@H](NC(=O)c1ccccc1)c1ccc(C(=O)OC)cc1
AC50 (Escherichia coli [10]): > 380 µM (inactive)
AC50 (Escherichia coli [11]): 21.2 µM (active)
